Measured values taken from ChEMBL document CHEMBL1201862, “PubChem BioAssay data set” (2004).
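Compound exposure: 48 hours, 5 concentrations, 96-well plates. GI50 = concentration required for 50% inhibition of growth.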 Active and inactive are the calls of the source. No stated cut-off is given here; in the data, active = GI50 up to about 1.1 µM and inactive = higher.

How the values were obtained:
Test in all cases: NCI-60 cell line screen, 48 h
[1] = system: RXF 393
[2] = system: EKVX
[3] = system: A549
[4] = system: SF-539
[5] = system: OVCAR-8
[6] = system: CCRF-CEM
[7] = system: SK-OV-3
[8] = system: UACC-257
[9] = system: NCI-H23
[10] = system: SK-MEL-2
[11] = system: MOLT-4
[12] = system: U-251
[13] = system: IGROV-1
[14] = system: K562
[15] = system: SF-268
[16] = system: SN12C
[17] = system: SF-295
[18] = system: SW-620
[19] = system: UACC-62
[20] = system: HT-29

Measured: GI50

CCOC(=O)C(NC(C)=O)(Nc1ccc(F)cc1)C(F)(F)F (stereo not given)
inactive: [1] 40.3 µM | [2] > 100 µM | [3] 39.3 µM | [4] > 100 µM | [5] > 100 µM | [6] > 100 µM | [7] > 100 µM | [8] > 100 µM | [9] > 100 µM | [10] > 100 µM | [11] 90.6 µM | [12] 16.5 µM | [13] 90.8 µM | [14] 2.61 µM | [15] > 100 µM | [16] > 100 µM | [17] 16.6 µM | [18] 28.8 µM | [19] 18.2 µM | [20] > 100 µM

C=CCn1c2ccccc2c2c(C)c3cnccc3c(C)c21
inactive: [1] 4.27 µM | [2] 12.1 µM | [3] 9.77 µM | [4] 10.7 µM | [5] 5.53 µM | [6] 4.12 µM | [7] 5.9 µM | [8] 7.23 µM | [9] 6.95 µM | [10] 15.8 µM | [11] 2.95 µM | [12] 11.2 µM | [13] 8.75 µM | [14] 5.6 µM | [15] 7.98 µM | [16] 9.1 µM | [17] 9.86 µM | [18] 6.61 µM | [19] 9.35 µM | [20] 8.93 µM

Cn1cnc(/C=C/C#N)c1
inactive: [1] > 100 µM | [2] > 100 µM | [3] > 100 µM | [4] > 100 µM | [5] > 100 µM | [6] > 100 µM | [7] > 100 µM | [8] > 100 µM | [9] > 100 µM | [10] > 100 µM | [11] > 100 µM | [12] > 100 µM | [13] > 100 µM | [14] > 100 µM | [15] > 100 µM | [16] > 100 µM | [17] > 100 µM | [18] > 100 µM | [19] > 100 µM | [20] > 100 µM

O=C1C(Cl)N(c2ccc(Cl)cc2Cl)C1c1c[nH]c2ccccc12 (stereo not given)
inactive: [1] 74 µM | [2] 54 µM | [3] > 100 µM | [4] > 100 µM | [5] > 100 µM | [6] > 100 µM | [7] > 100 µM | [8] > 100 µM | [9] 92.3 µM | [10] > 100 µM | [11] > 100 µM | [12] > 100 µM | [13] > 100 µM | [14] > 100 µM | [15] > 100 µM | [16] > 100 µM | [17] > 100 µM | [18] > 100 µM | [19] > 100 µM | [20] > 100 µM

C=CC12CN(C)C3C4COC(CC41)C1(C(=O)Nc4ccccc41)C32 (stereo not given)
inactive: [1] > 179 µM | [2] > 200 µM | [3] 166 µM | [4] > 200 µM | [5] > 200 µM | [6] 96.6 µM | [7] > 20 µM | [8] > 200 µM | [9] > 173 µM | [10] > 148 µM | [11] > 200 µM | [12] > 156 µM | [13] > 200 µM | [14] 165 µM | [15] 173 µM | [16] > 200 µM | [17] > 200 µM | [18] 174 µM | [19] > 178 µM | [20] > 145 µM

O=C(O)CN(CC(=O)O)C1CCCCC1N(CC(=O)O)CC(=O)NCCN=C=S (stereo not given)
inactive: [1] > 100 µM | [2] > 100 µM | [3] > 100 µM | [4] > 100 µM | [5] > 100 µM | [6] > 100 µM | [7] > 100 µM | [8] > 100 µM | [9] > 100 µM | [10] > 100 µM | [11] > 100 µM | [12] > 100 µM | [13] > 100 µM | [14] > 100 µM | [15] > 100 µM | [16] > 100 µM | [17] > 100 µM | [18] > 100 µM | [19] > 100 µM | [20] > 100 µM

CC(C)(C)C1(c2ccc(C3(c4ccccc4)Oc4ccccc4S3)[nH]2)Oc2ccccc2S1 (stereo not given)
inactive: [1] > 100 µM | [2] > 100 µM | [3] > 100 µM | [4] > 100 µM | [5] > 100 µM | [6] > 100 µM | [7] > 100 µM | [8] 92.9 µM | [9] > 100 µM | [10] > 100 µM | [11] 65.5 µM | [12] > 100 µM | [13] > 100 µM | [14] > 100 µM | [15] > 100 µM | [16] > 100 µM | [17] > 100 µM | [18] > 100 µM | [19] > 100 µM | [20] > 100 µM

CCOC(=O)/C(=N/Nc1ccc(C)cc1)N1C(=S)N(C)N=C(C)C=C1S
inactive: [1] 41.7 µM | [2] > 100 µM | [3] > 100 µM | [4] > 100 µM | [5] 75 µM | [6] > 100 µM | [7] 55.6 µM | [8] > 100 µM | [9] 94.4 µM | [10] 58.1 µM | [11] > 100 µM | [12] 24.1 µM | [13] > 100 µM | [14] > 100 µM | [15] 33.8 µM | [16] > 100 µM | [17] 19.1 µM | [18] > 100 µM | [19] > 100 µM | [20] > 100 µM

COc1cc2c(cc1OC)C1Cc3sccc3CN1CC2 (stereo not given)
inactive: [1] > 100 µM | [2] > 100 µM | [3] > 100 µM | [4] > 100 µM | [5] > 100 µM | [6] > 100 µM | [7] > 100 µM | [8] > 100 µM | [9] > 100 µM | [10] > 100 µM | [11] > 100 µM | [12] > 100 µM | [13] > 100 µM | [14] > 100 µM | [15] > 100 µM | [16] > 100 µM | [17] > 100 µM | [18] > 100 µM | [19] > 100 µM | [20] > 100 µM

COc1cc(-c2ccc(/N=N/c3ccc4c(S(=O)(=O)O)cc(S(=O)(=O)O)c(N)c4c3O)c(OC)c2)ccc1/N=N/c1ccc2c(S(=O)(=O)O)cc(S(=O)(=O)O)c(N)c2c1O
inactive: [1] > 100 µM | [2] > 100 µM | [3] > 100 µM | [4] > 100 µM | [5] > 100 µM | [6] > 100 µM | [7] > 100 µM | [8] > 100 µM | [9] > 100 µM | [10] > 100 µM | [11] > 100 µM | [12] > 100 µM | [13] > 100 µM | [14] > 100 µM | [15] > 100 µM | [16] > 100 µM | [17] > 100 µM | [18] > 100 µM | [19] > 100 µM | [20] > 100 µM

NC(=O)CCC(N=C(N)c1csc(C2OC(CO)C(O)C2O)n1)C(=O)O (stereo not given)
inactive: [1] > 100 µM | [2] > 100 µM | [3] > 100 µM | [4] > 100 µM | [5] > 100 µM | [6] > 100 µM | [7] > 100 µM | [8] > 100 µM | [9] > 100 µM | [10] > 100 µM | [11] > 100 µM | [12] > 100 µM | [13] > 100 µM | [14] > 100 µM | [15] > 100 µM | [16] > 100 µM | [17] > 100 µM | [18] > 100 µM | [19] > 100 µM | [20] > 100 µM

O=c1c(Cc2ccc(Cc3c(O)oc4ccccc4c3=O)cc2)c(O)oc2ccccc12
inactive: [1] > 100 µM | [2] > 100 µM | [3] > 100 µM | [4] > 100 µM | [5] > 100 µM | [6] > 100 µM | [7] > 100 µM | [8] > 100 µM | [9] > 100 µM | [10] > 100 µM | [11] > 100 µM | [12] > 100 µM | [13] > 100 µM | [14] > 100 µM | [15] > 100 µM | [16] > 100 µM | [17] > 100 µM | [18] > 100 µM | [19] > 100 µM | [20] > 100 µM
